We go through one compound from publication PMC6415263, “Proteins as Nano-Carriers for Bioactive Compounds. The Case of 7S and 11S Soy Globulins and Folic Acid Complexation” (Polymers, 2018).

SMILES strings stand for the structures.

In test [1] the target is T1, 7S globulin (β-conglycinin).
T1 construct: gene CG-1; native 7S fraction from defatted soybean flour (Nagano method), lyophilized; mixed trimers of alpha, alpha' and beta; 150-200 kDa; minor gamma-conglycinin
The test can be described thus: intrinsic fluorescence quenching, modified double logarithm model. Format: binding, Glycine max. To be noted: Trizma buffer pH 7.0, I = 0.05 M, 25 °C; excitation 280 nm; protein 5 μM, FA 0-20 μM (methods section prints mM). The text has this:
intrinsic fluorescence quenching, modified double logarithm model on 7S globulin (β-conglycinin)

Test [2] deals with T2, 11S globulin (glycinin).
T2 construct: gene GY1; native 11S fraction from defatted soybean flour (Nagano method), lyophilized; hexamer of non-identical subunits, each acidic A and basic B polypeptide joined by disulfide; 300-380 kDa
Described as above. Format: binding, Glycine max. To be noted: Trizma buffer pH 7.0, I = 0.05 M, 25 °C; excitation 280 nm; protein 5 μM, FA 0-20 μM (methods section prints mM). The text has this:
intrinsic fluorescence quenching, modified double logarithm model on 11S globulin (glycinin)

For `Nc1nc2ncc(CNc3ccc(C(=O)N[C@@H](CCC(=O)O)C(=O)O)cc3)nc2c(=O)[nH]1` [folic acid], the “Parameters derived from modified double logarithm model / Ka [M^-1]” value in test [1] is on record as 4.00 × 10^4; in test [2] it was 4.36 × 10^4.
